Results taken from patent US11207291B2, “Antimicrobial compositions comprising cannabinoids and methods of using the same” (Graphium Biosciences, Inc., priority 2017, dated 2021).
In brackets after ≈: the same amount, converted by molar mass. Like-named read-outs stand apart in the source and are kept apart here.

Tests used:
[1] = system: Staphylococcus aureus (MSSA); experiment: Broth microdilution MIC, aerobic bacteria (Example 1); assay type: cell-based; details: Staphylococcus aureus, ATCC 29213 / MSSA, isolate MMX 100 (ATCC 29213), read-out: MIC
[2] = system: Staphylococcus aureus (MRSA); experiment: microbe, parasite or virus in culture; assay type: cell-based; details: Staphylococcus aureus, MRSA
[3] = system: Enterococcus faecalis (VSE); experiment: Broth microdilution MIC, aerobic bacteria (Example 1); assay type: cell-based; details: Enterococcus faecalis, ATCC29212, isolate MMX 101 (ATCC 29212), read-out: MIC
[4] = system: Streptococcus pneumoniae; experiment: as above; assay type: cell-based; details: Streptococcus pneumoniae
[5] = system: Streptococcus pyogenes; experiment: as above; assay type: cell-based; details: Streptococcus pyogenes, isolate MMX 404, read-out: MIC
[6] = system: Escherichia coli; experiment: as above; assay type: cell-based; details: Escherichia coli, ATCC25922, isolate MMX 102 (ATCC 25922), read-out: MIC
[7] = system: Acinetobacter baumannii; experiment: as above; assay type: cell-based
[8] = system: Bifidobacterium bifidum; experiment: Broth microdilution MIC, anaerobic bacteria (Example 1); assay type: cell-based; details: Bifidobacterium bifidum
[9] = system: Bifidobacterium longum; experiment: as above; assay type: cell-based; details: Bifidobacterium longum
[10] = system: Candida parapsilosis; experiment: Broth microdilution MIC, yeast and fungi (Example 1); assay type: cell-based; details: Lodderomyces parapsilosis, ATCC22019, Example 1, isolate MMX 2323 (ATCC 22019)
[11] = system: Aspergillus fumigatus; experiment: as above; assay type: cell-based; details: Aspergillus fumigatus, isolate MMX 5280 (ATCC MYA-3626)
[12] = system: Staphylococcus aureus (MSSA); experiment: Broth microdilution MIC, aerobic bacteria (Example 4); assay type: cell-based; details: ATCC 29213 / MSSA
[13] = system: Streptococcus pneumoniae; experiment: as above; assay type: cell-based; details: ATCC49619
[14] = system: Streptococcus pyogenes; experiment: as above; assay type: cell-based
[15] = system: Escherichia coli; experiment: as above; assay type: cell-based; details: ATCC25922
[16] = system: Pseudomonas aeruginosa; experiment: as above; assay type: cell-based
[17] = system: Clostridium difficile; experiment: Broth microdilution MIC, anaerobic bacteria (Example 4); assay type: cell-based; details: Clostridioides difficile
[18] = system: Bifidobacterium longum; experiment: as above; assay type: cell-based; details: isolate MMX 3968
[19] = system: Bacteroides fragilis; experiment: as above; assay type: cell-based; details: ATCC25285, isolate MMX 123 (ATCC 25285)
[20] = Compound precipitation in uninoculated solubility controls (Example 4); assay type: physicochemical
Experimental: Un-inoculated solubility control plates for each test media and drug were incubated in parallel with test plates and observed for evidence of drug precipitation. MICs were read where visible growth of the organism was inhibited.

[21] = system: S. pneumoniae ATCC 49619; experiment: MIC/MBC testing (Example 5); assay type: cell-based
[22] = system: C. difficile; experiment: MIC/MBC testing (Example 5); assay type: cell-based; details: for MBC:MIC: ratios of 1-4 are indicative of bactericidal activity; for MBC / MIC: Clostridioides difficile
[23] = system: B. fragilis ATCC 25285; experiment: MIC/MBC testing (Example 5); assay type: cell-based; details: Bacteroides fragilis, ATCC25285
[24] = system: gram-negative aerobes; experiment: Broth microdilution MIC, text summary (Example 1); assay type: cell-based
[25] = system: gram-negative aerobes; experiment: Broth microdilution MIC, summary (Example 4); assay type: cell-based; details: tested alone
[26] = system: evaluated yeast and fungal isolates; experiment: Broth microdilution MIC, summary (Example 4); assay type: cell-based
[27] = system: strains tested; experiment: MIC/MBC testing, summary (Example 5); assay type: cell-based
[28] = Example 1 summary of findings, read-out: inhibits the growth (IC50 values)
[29] = Streptococcus pneumoniae, ATCC49619
[30] = ATCC700057, Example 5, ATCC 700057

C=C(C)[C@@H]1CCC(C)=C[C@H]1c1c(O)cc(CCCCC)cc1O [CBD, cannabidiol]
MIC [1]: 2 µg/mL (≈ 6.36 µM) | MIC [2]: 2 µg/mL (≈ 6.36 µM) | IC50 ([2]; read-out: inhibits the growth (IC50)): 2 µg/mL (≈ 6.36 µM) | MIC [3]: 2 µg/mL (≈ 6.36 µM) | MIC ([4]; ATCC49619, Example 1, isolate MMX 1195 (ATCC 49619), read-out: MIC): 4 µg/mL (≈ 12.7 µM) | IC50 ([4]; Example 1 summary of findings, read-out: inhibits the growth (IC50)): 4 µg/mL (≈ 12.7 µM) | MIC [5]: 16 µg/mL (≈ 50.9 µM) | MIC [6]: > 256 µg/mL | MIC ([7]; Acinetobacter baumannii): > 256 µg/mL | effect on the gram-negative pathogen ([7]; Example 1 summary of findings, Acinetobacter): did not have any effect | MIC ([8]; Example 1, isolate MMX 3965, read-out: MIC): 2 µg/mL (≈ 6.36 µM) | IC50 [8, 28]: 2 µg/mL (≈ 6.36 µM) | MIC ([9]; Example 1, isolate MMX 3968, read-out: MIC): 32 µg/mL (≈ 102 µM) | IC50 [9, 28]: 32 µg/mL (≈ 102 µM) | MIC ([10]; 24 hr, read-out: MIC at 24 hr): > 256 µg/mL | MIC ([10]; 48 hr, read-out: MIC at 48 hr): > 256 µg/mL | MIC ([11]; 24 hr, read-out: MIC at 24 hr): > 256 µg/mL | MIC ([11]; 48 hr, read-out: MIC at 48 hr): > 256 µg/mL | MIC [12]: 2 µg/mL (≈ 6.36 µM) | MIC [13]: 4 µg/mL (≈ 12.7 µM) | MIC [14]: 32 µg/mL (≈ 102 µM) | MIC [15]: > 128 µg/mL | MIC [16]: > 128 µg/mL | MIC ([17]; ATCC700057, Example 4, isolate MMX 4381 (ATCC 700057)): 64 µg/mL (≈ 204 µM) | MIC ([17]; Example 4, isolate MMX 8330): 64 µg/mL (≈ 204 µM) | MIC ([17]; Example 4, isolate MMX 8333): 64 µg/mL (≈ 204 µM) | MIC [18]: 64 µg/mL (≈ 204 µM) | MIC [19]: > 128 µg/mL | precipitation observed (type) ([20]; Brucella Broth): none | precipitation observed (type) ([20]; MHB II): none | precipitation observed (type) ([20]; MHB II with Blood): none | precipitation observed (type) ([20]; RPMI): none | MBC [21, 29]: 4 µg/mL (≈ 12.7 µM) | MIC [21, 29]: 1 µg/mL (≈ 3.18 µM) | MBC:MIC ([21]; ratios of 1-4 are indicative of bactericidal activity): 4 | MBC:MIC ([22]; ATCC 700057): 2 | MBC [22, 30]: 32 µg/mL (≈ 102 µM) | MIC [22, 30]: 16 µg/mL (≈ 50.9 µM) | MBC ([22]; Example 5, MMX 8330): 32 µg/mL (≈ 102 µM) | MIC ([22]; Example 5, MMX 8330): 32 µg/mL (≈ 102 µM) | MBC ([22]; Example 5, MMX 8333): 32 µg/mL (≈ 102 µM) | MIC ([22]; Example 5, MMX 8333): 16 µg/mL (≈ 50.9 µM) | MBC:MIC ([22]; MMX 8330): 1 | MBC:MIC ([22]; MMX 8333): 2 | MIC [23]: 16 µg/mL (≈ 50.9 µM) | activity against gram-negative aerobic bacteria [24]: inactive | activity against Gram-negative aerobes [25]: inactive | activity against yeast and fungal isolates [26]: Neither THC nor CBD were active | biocidal activity against the strains tested [27]: overall biocidal
